In ChEMBL document CHEMBL5620379, “Discovery, SAR and mechanistic studies of quinazolinone-based acetamide derivatives in experimental visceral leishmaniasis” (Eur J Med Chem, 2023):

Legend:
Leishmania donovani [1] = test: Antileishmanial activity against Leishmania donovani promastigotes measured after 48 hrs by MTT assay; assay type: functional, organism-based
J774 [2] = test: Cytotoxicity against mouse J774 cells at 50 uM incubated for 72 hrs by MTT assay relative to control; assay type: toxicity, cell-based; settings: j774, 72 h
[3] = Selectivity index, ratio of CC50 for mouse J774 macrophage to IC50 for Leishmania donovani amastigotes infected in J774 macrophage; assay type: toxicity; settings: J774 macrophages, read-out: Ratio CC50/IC50
J774 [4] = test: Cytotoxicity against mouse J774 cells at 25 uM incubated for 72 hrs by MTT assay relative to control; assay type: toxicity, cell-based; settings: j774, 72 h
J774 [5] = test: Cytotoxicity against mouse J774 cells at 12.5 uM incubated for 72 hrs by MTT assay relative to control; assay type: toxicity, cell-based; settings: j774, 72 h
Leishmania donovani [6] = test: Antileishmanial activity against Leishmania donovani amastigotes infected in J774 macrophage assessed as inhibition of parasite growth incubated for 48 hrs by luciferase assay; assay type: functional, organism-based; settings: J774, 48 h
J774 [7] = test: Cytotoxicity against mouse J774 macrophage incubated for 72 hrs by MTT assay; assay type: functional

Work on `Cn1c(-c2ccc(OCC(=O)Nc3ccc4c(c3)OCO4)cc2)nc2ccccc2c1=O` yielded an IC50 (Leishmania donovani [1]) of 17.5 µM, an Activity (J774 [2]) of 45.89% and a selectivity ratio [3] of 2.25. It also gave an Activity (J774 [4]) of 78.08%, an Activity (J774 [5]) of 85.01% and an IC50 (Leishmania donovani [6]) of 21.5 µM. For the same compound, the CC50 (J774 [7]) was 48.5 µM.
`COc1ccc(NC(=O)COc2ccc(-c3nc4ccccc4c(=O)n3C)cc2)cc1OC` gave an IC50 (Leishmania donovani [1]) of 7.86 µM, an Activity (J774 [2]) of 37.47% and a selectivity ratio [3] of 3.53. For the same compound, the Activity (J774 [4]) was 67.45%, the Activity (J774 [5]) was 83.52% and the IC50 (Leishmania donovani [6]) was 10.5 µM. For the same compound, the CC50 (J774 [7]) was 37 µM.
`Cc1ccc(NC(=O)COc2ccc(-c3nc4ccccc4c(=O)n3C)cc2)cc1C` gave an Activity (J774 [2]) of 31.465%, an Activity (J774 [4]) of 46.38% and an Activity (J774 [5]) of 67.4%.
In the case of `COc1ccc(NC(=O)COc2cccc(-c3nc4ccccc4c(=O)n3C)c2)cc1`, the Activity (J774 [2]) is reported as 29.78%, the Activity (J774 [4]) is reported as 52.92% and the Activity (J774 [5]) is reported as 64.08%.
`Cc1ccc(NC(=O)COc2cccc(-c3nc4ccccc4c(=O)n3C)c2)cc1` gave an Activity (J774 [2]) of 31.44%, an Activity (J774 [4]) of 41.69% and an Activity (J774 [5]) of 65.55%.
Work on `Cn1c(-c2cccc(OCC(=O)Nc3cccc(C(F)(F)F)c3)c2)nc2ccccc2c1=O` yielded an Activity (J774 [2]) of 36.03%, an Activity (J774 [4]) of 53.5% and an Activity (J774 [5]) of 69.23%.
`CCn1c(-c2ccc(OCC(=O)Nc3ccc(C)cc3)cc2)nc2ccccc2c1=O` gave an IC50 (Leishmania donovani [1]) of 8.43 µM, an Activity (J774 [2]) of 37.91% and a selectivity ratio [3] of 4.03. It also gave an Activity (J774 [4]) of 68.99%, an Activity (J774 [5]) of 85.97% and an IC50 (Leishmania donovani [6]) of 10.1 µM. For the same compound, the CC50 (J774 [7]) was 40.9 µM.
For `Cn1c(-c2ccc(OCC(=O)Nc3ccc(F)cc3)cc2)nc2ccccc2c1=O`, the IC50 (Leishmania donovani [1]) was 8.02 µM, the Activity (J774 [2]) was 38.87% and the selectivity ratio [3] was 3.62. The Activity (J774 [4]) was 69.62%, the Activity (J774 [5]) was 82.8% and the IC50 (Leishmania donovani [6]) was 11.5 µM. For the same compound, the CC50 (J774 [7]) was 41.6 µM.
Compound `CCn1c(-c2ccc(OCC(=O)Nc3cccc(C(F)(F)F)c3)cc2)nc2ccccc2c1=O` has an IC50 (Leishmania donovani [1]) of 19.8 µM, an Activity (J774 [2]) of 47.72% and a selectivity ratio [3] of 2.15. The Activity (J774 [4]) was 77.31%, the Activity (J774 [5]) was 87.75% and the IC50 (Leishmania donovani [6]) was 20.9 µM. It also gave a CC50 (J774 [7]) of 45 µM.
`Cn1c(-c2ccc(OCC(=O)Nc3ccc(Cl)cc3)cc2)nc2ccccc2c1=O` showed an IC50 (Leishmania donovani [1]) of 16.1 µM, an Activity (J774 [2]) of 58.88% and a selectivity ratio [3] of 2.78. For the same compound, the Activity (J774 [4]) was 81.59%, the Activity (J774 [5]) was 85.35% and the IC50 (Leishmania donovani [6]) was 22.1 µM. It also gave a CC50 (J774 [7]) of 61.8 µM.
`CC(C)c1ccc(NC(=O)COc2ccc(-c3nc4ccccc4c(=O)n3C)cc2)cc1` showed an Activity (J774 [2]) of 49.31%, an Activity (J774 [4]) of 67.4% and an Activity (J774 [5]) of 69.76%.
Compound `COc1ccc(NC(=O)COc2ccc(-c3nc4ccccc4c(=O)n3C)cc2)cc1` has an IC50 (Leishmania donovani [1]) of 14.3 µM, an Activity (J774 [2]) of 35.93% and a selectivity ratio [3] of 1.5. For the same compound, the Activity (J774 [4]) was 78.71%, the Activity (J774 [5]) was 83.71% and the IC50 (Leishmania donovani [6]) was 26.1 µM. The CC50 (J774 [7]) was 39.2 µM.
`Cc1ccc(NC(=O)COc2ccc(-c3nc4ccccc4c(=O)n3C)cc2)cc1Cl` gave an Activity (J774 [2]) of 47.78%, an Activity (J774 [4]) of 52.13% and an Activity (J774 [5]) of 68.41%.
With `Cn1c(-c2cccc(OCC(=O)Nc3ccc(F)cc3)c2)nc2ccccc2c1=O` the Activity (J774 [2]) was 31.32%, the Activity (J774 [4]) was 56.86% and the Activity (J774 [5]) was 66.92%.
Work on `COc1cc(NC(=O)COc2ccc(-c3nc4ccccc4c(=O)n3C)cc2)cc(OC)c1OC` yielded an Activity (J774 [2]) of 39.78%, an Activity (J774 [4]) of 51.67% and an Activity (J774 [5]) of 69.04%.
`Cn1c(-c2cccc(OCC(=O)Nc3ccc(Cl)cc3)c2)nc2ccccc2c1=O` gave an IC50 (Leishmania donovani [1]) of 9.11 µM, an Activity (J774 [2]) of 55.23% and a selectivity ratio [3] of 4.54. It also gave an Activity (J774 [4]) of 71.35%, an Activity (J774 [5]) of 84.53% and an IC50 (Leishmania donovani [6]) of 11.9 µM. The CC50 (J774 [7]) was 54.1 µM.
